{"source": "patent US12262716B2", "about": "“Herbicidal mixtures comprising L-glufosinate and their use in soybean cultures” (BASF SE, priority 2017, dated 2025)", "type_in_all_cases": "in vivo", "key": {"[1]": {"system": "Cyperus iria", "assay": "Greenhouse pot test, post emergence treatment, herbicidal activity against CYPIR", "conditions": "scale 0 to 100"}, "[2]": {"system": "Echinochloa crus-galli", "assay": "Greenhouse pot test, post emergence treatment, herbicidal activity against ECHCG", "conditions": "scale 0 to 100", "source_text": "(§1) Synergism can be described as an interaction where the combined effect of two or more compounds is greater than the sum of the individual effects of each of the compounds. The presence of a synergistic effect in terms of percent control, between two mixing partners (X and Y) can be calculated using the Colby equation (Colby, S. R., 1967, Calculating Synergistic and Antagonistic Responses in Herbicide Combinations, Weeds, 15, 21-22):\n(§2) When the observed combined control effect is greater than the expected (calculated) combined control effect (E), then the combined effect is synergistic.\n(§3) However, the weed control afforded by the compounds, mixtures or compositions is not limited to these species. The analysis of synergism or antagonism between the mixtures or compositions was determined using Colby's equation.\nThe culture containers used were plastic flowerpots containing loamy sand with approximately 3.0% of humus as the substrate. The seeds of the test plants were sown separately for each species and/or resistant biotype. For the pre-emergence treatment, the active ingredients, which had been suspended or emulsified in water, were applied directly after sowing by means of finely distributing nozzles. The containers were irrigated gently to promote germination and growth and subsequently covered with transparent plastic hoods until the plants had rooted. This cover caused uniform germination of the test plants, unless this had been impaired by the active ingredients. For the post-emergence treatment, the test plants were first grown to a height of 3 to 15 cm, depending on the plant habit, and only then treated with the active ingredients which had been suspended or emulsified in water. For this purpose, the test plants were either sown directly and grown in the same containers, or they were first grown separately as seedlings and transplanted into the test containers a few days prior to treatment. […] During this time, the plants were tended, and their response to the individual treatments was evaluated. […]"}, "[3]": {"system": "Erigeron Canadensis, Conyza canadensis", "assay": "Greenhouse pot test, post emergence treatment, herbicidal activity against ERICA", "conditions": "L-Glufosinate 75 g ai/ha, scale 0 to 100"}, "[4]": {"system": "Avena fatua", "assay": "Greenhouse pot test, post emergence treatment, herbicidal activity against AVEFA", "conditions": "scale 0 to 100", "source_text": "as §1, §2, §3\nThe culture containers used were plastic flowerpots containing loamy sand with approximately 3.0% of humus as the substrate. The seeds of the test plants were sown separately for each species and/or resistant biotype. For the pre-emergence treatment, the active ingredients, which had been suspended or emulsified in water, were applied directly after sowing by means of finely distributing nozzles. The containers were irrigated gently to promote germination and growth and subsequently covered with transparent plastic hoods until the plants had rooted. This cover caused uniform germination of the test plants, unless this had been impaired by the active ingredients. For the post-emergence treatment, the test plants were first grown to a height of 3 to 15 cm, depending on the plant habit, and only then treated with the active ingredients which had been suspended or emulsified in water. For this purpose, the test plants were either sown directly and grown in the same containers, or they were first grown separately as seedlings and transplanted into the test containers a few days prior to treatment. Depending on the species, the plants were kept at 10-25 ° C.or 20-35° C., respectively. The test period extended to 20 days after treatment. During this time, the plants were tended, and their response to the individual treatments was evaluated. The evaluation was carried out by using a scale from 0 to 100. 100 means no emergence of the plants or complete destruction of at least the above-ground parts, and 0 means no damage, or normal course of growth. Data shown are the mean of two replications. […]"}, "[5]": {"system": "Abutilon theophrasti", "assay": "Greenhouse pot test, post emergence treatment, herbicidal activity against ABUTH", "conditions": "scale 0 to 100", "source_text": "as §1, §2, §3\nThe culture containers used were plastic flowerpots containing loamy sand with approximately 3.0% of humus as the substrate. The seeds of the test plants were sown separately for each species and/or resistant biotype. For the pre-emergence treatment, the active ingredients, which had been suspended or emulsified in water, were applied directly after sowing by means of finely distributing nozzles. The containers were irrigated gently to promote germination and growth and subsequently covered with transparent plastic hoods until the plants had rooted. This cover caused uniform germination of the test plants, unless this had been impaired by the active ingredients. For the post-emergence treatment, the test plants were first grown to a height of 3 to 15 cm, depending on the plant habit, and only then treated with the active ingredients which had been suspended or emulsified in water. For this purpose, the test plants were either sown directly and grown in the same containers, or they were first grown separately as seedlings and transplanted into the test containers a few days prior to treatment. Depending on the species, the plants were kept at 10-25 ° C.or 20-35° C., respectively. The test period extended to 20 days after treatment. During this time, the plants were tended, and their response to the individual treatments was evaluated. The evaluation was carried out by using a scale from 0 to 100. 100 means no emergence of the plants or complete destruction of at least the above-ground parts, and 0 means no damage, or normal course of growth. Data shown are the mean of two replications.\n• L-Glufosinate: 5% EC formulation • Saflufenacil: 342 g/l SC formulation • Compound II-89: 5% EC formulation (Compound II-89: ethyl [3-[2-chloro-4-fluoro-5-(1-methyl-6-trifluoromethyl-2,4-dioxo-1,2,3,4-tetrahydropyrimidin-3-yl)phenoxy]-2-pyridyloxy]acetate) • Trifludimoxazin: 500 g/l SC formulation • Pyroxasulfone: 85% WG formulation • Pethoxamid: 5% EC formulation • Sulfentrazone: 480 g/l SC formulation Weeds in the Study: […]"}}}
{"smiles": "CCOC(=O)COc1ncccc1Oc1cc(-n2c(=O)cc(C(F)(F)F)n(C)c2=O)c(F)cc1Cl", "note": "[Compound II-89, ethyl [3-[2-chloro-4-fluoro-5-(1-methyl-6-trifluoromethyl-2,4-dioxo-1,2,3,4-tetrahydropyrimidin-3-yl)phenoxy]-2-pyridyloxy]acetate]", "values": [{"measurement": "Herbicidal activity against CYPIR, Found", "setting": "[1]; Compound II-89 0.25 g ai/ha", "result": 0}]}
{"smiles": "CP(=O)(O)CC[C@H](N)C(=O)O", "note": "[L-Glufosinate, (2S)-2-amino-4-[hydroxy(methyl)phosphinoyl]butyric acid]", "values": [{"measurement": "Herbicidal activity against CYPIR, Found", "setting": "[1]; L-Glufosinate 200 g ai/ha", "result": 0}, {"measurement": "Herbicidal activity against ECHCG, Found", "setting": "[2]; L-Glufosinate 200 g ai/ha", "result": 0}, {"measurement": "Herbicidal activity against ECHCG, Found", "setting": "[2]; L-Glufosinate 400 g ai/ha", "result": 65}, {"measurement": "Herbicidal activity against ERICA, Found", "setting": "[3]", "result": 90}, {"measurement": "Herbicidal activity against AVEFA, Found", "setting": "[4]; L-Glufosinate 75 g ai/ha", "result": 0}, {"measurement": "Herbicidal activity against AVEFA, Found", "setting": "[4]; L-Glufosinate 150 g ai/ha", "result": 0}, {"measurement": "Herbicidal activity against ABUTH, Found", "setting": "[5]; L-Glufosinate 75 g ai/ha", "result": 0}, {"measurement": "Herbicidal activity against ABUTH, Found", "setting": "[5]; L-Glufosinate 150 g ai/ha", "result": 55}, {"measurement": "Herbicidal activity against ABUTH, Found", "setting": "[5]; L-Glufosinate 200 g ai/ha", "result": 65}]}
{"smiles": "CCOCCN(C(=O)CCl)C(=C(C)C)c1ccccc1", "note": "[Pethoxamid, pethoxamid]", "values": [{"measurement": "Herbicidal activity against AVEFA, Found", "setting": "[4]; Pethoxamid 50 g ai/ha", "result": 0}, {"measurement": "Herbicidal activity against AVEFA, Found", "setting": "[4]; Pethoxamid 100 g ai/ha", "result": 0}, {"measurement": "Herbicidal activity against ABUTH, Found", "setting": "[5]; Pethoxamid 50 g ai/ha", "result": 0}, {"measurement": "Herbicidal activity against ABUTH, Found", "setting": "[5]; Pethoxamid 100 g ai/ha", "result": 0}]}
{"smiles": "C#CCN1C(=O)C(F)(F)Oc2cc(F)c(-n3c(=O)n(C)c(=S)n(C)c3=O)cc21", "note": "[Trifludimoxazin, trifludimoxazin]", "values": [{"measurement": "Herbicidal activity against ECHCG, Found", "setting": "[2]; Trifludimoxazin 0.25 g ai/ha", "result": 10}]}
